Laboratory results from ChEMBL document CHEMBL1201862, “PubChem BioAssay data set” (2004).
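Following 48 hours of exposure in 96-well plates, responses at five concentrations were used to interpolate endpoints linearly. GI50 is the concentration that inhibits growth by half.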 Calls of active or inactive are those of the source. Rule as the data show it: active = GI50 up to about 1.1 µM and inactive = higher.

What was measured:
Experiment in all cases: NCI anticancer screen, dose series, 48 h
OVCAR-4 = system: OVCAR-4
MOLT-4 = system: MOLT-4
Malme-3M = system: Malme-3M
RPMI-8226 = system: RPMI-8226
SK-MEL-5 = system: SK-MEL-5
LOX IMVI = system: LOX IMVI
SNB-75 = system: SNB-75
HCT-15 = system: HCT-15
NCI-H522 = system: NCI-H522
RXF 393 = system: RXF 393
NCI-H226 = system: NCI-H226
K562 = system: K562
A498 = system: A498
HOP-92 = system: HOP-92
DU-145 = system: DU-145
NCI-H460 = system: NCI-H460
PC-3 = system: PC-3
NCI-H23 = system: NCI-H23
KM12 = system: KM12
SK-OV-3 = system: SK-OV-3

Measured: GI50

O=C1CCc2cc(Br)ccc2O1
> 100 µM: HCT-15
inactive: OVCAR-4 > 100 µM | MOLT-4 > 100 µM | Malme-3M > 100 µM | RPMI-8226 > 100 µM | SK-MEL-5 26.4 µM | LOX IMVI 50.5 µM | SNB-75 30.4 µM | NCI-H522 32.7 µM | RXF 393 28.2 µM | NCI-H226 > 100 µM | K562 > 100 µM | A498 37.8 µM | HOP-92 24.9 µM | DU-145 > 100 µM | NCI-H460 > 100 µM | PC-3 > 100 µM | NCI-H23 44.7 µM

O=[N+]([O-])c1ccc2nc3c(nc2c1)-c1c2ccccc2cc2cccc-3c12
6.28 µM: HCT-15
active: A498 0.427 µM
inactive: OVCAR-4 24.3 µM | KM12 3.61 µM | MOLT-4 2.17 µM | Malme-3M 19 µM | RPMI-8226 17.7 µM | SK-MEL-5 31.8 µM | LOX IMVI 4.8 µM | NCI-H522 3.3 µM | RXF 393 8.41 µM | NCI-H226 12.7 µM | SK-OV-3 17.5 µM | K562 6.1 µM | HOP-92 14.9 µM | DU-145 28.2 µM | NCI-H460 19.7 µM | PC-3 9.55 µM | NCI-H23 3.61 µM

O=C1C2=Nc3ccccc3C(O)(C(=O)O)N2c2ccccc21 (centres undefined)
inactive: OVCAR-4 14.3 µM | KM12 26.9 µM | MOLT-4 17.6 µM | Malme-3M 15 µM | RPMI-8226 6.68 µM | SK-MEL-5 14 µM | LOX IMVI 20.1 µM | SNB-75 27.2 µM | NCI-H522 17.6 µM | RXF 393 40 µM | NCI-H226 > 100 µM | K562 20.8 µM | A498 29.5 µM | HOP-92 32.7 µM | DU-145 16.3 µM | NCI-H460 12.2 µM | PC-3 6.61 µM | NCI-H23 24.1 µM
15.2 µM: HCT-15

O=C1CSC(c2ccc([N+](=O)[O-])cc2)N1c1ccc(-c2ccc(-n3c(-c4ccccc4)nc4ccccc4c3=O)cc2)cc1 (centres undefined)
33.7 µM: HCT-15
inactive: OVCAR-4 34.2 µM | KM12 21.4 µM | MOLT-4 20.4 µM | Malme-3M 58.1 µM | RPMI-8226 32.5 µM | SK-MEL-5 17.3 µM | LOX IMVI 52.5 µM | NCI-H522 > 100 µM | NCI-H226 56.1 µM | SK-OV-3 > 100 µM | K562 34.4 µM | A498 > 100 µM | HOP-92 41.7 µM | DU-145 > 100 µM | NCI-H460 38.4 µM | PC-3 36.4 µM | NCI-H23 > 100 µM

C=CCOc1ccc2c(C)cc(=O)oc2c1C
42.8 µM: HCT-15
inactive: OVCAR-4 96.4 µM | KM12 59.7 µM | MOLT-4 35.1 µM | Malme-3M > 100 µM | RPMI-8226 35.5 µM | SK-MEL-5 32.4 µM | LOX IMVI 43.8 µM | SNB-75 52.6 µM | NCI-H522 29.2 µM | RXF 393 23.1 µM | NCI-H226 > 100 µM | K562 52.5 µM | A498 31.5 µM | HOP-92 54.3 µM | DU-145 > 100 µM | NCI-H460 53.8 µM | PC-3 35.3 µM | NCI-H23 > 100 µM

Cn1c2ccccc2c2[nH]c3ccccc3c(=O)c21
inactive: OVCAR-4 > 10 µM | KM12 > 100 µM | MOLT-4 50.6 µM | Malme-3M > 100 µM | RPMI-8226 > 100 µM | SK-MEL-5 46.2 µM | LOX IMVI 31.8 µM | SNB-75 69.2 µM | RXF 393 > 100 µM | NCI-H226 > 100 µM | SK-OV-3 > 100 µM | K562 > 100 µM | A498 > 100 µM | HOP-92 65.5 µM | DU-145 > 100 µM | NCI-H460 > 100 µM | PC-3 > 100 µM | NCI-H23 > 100 µM
> 100 µM: HCT-15

COc1cc(OC)c2c(=O)c(OC)c(-c3ccc4c(c3)OCO4)oc2c1OC
> 100 µM: HCT-15
inactive: KM12 > 100 µM | MOLT-4 78.5 µM | Malme-3M > 100 µM | SK-MEL-5 23.2 µM | LOX IMVI 41.2 µM | SNB-75 > 100 µM | NCI-H522 43.1 µM | RXF 393 > 100 µM | NCI-H226 > 100 µM | SK-OV-3 > 100 µM | K562 > 100 µM | A498 > 100 µM | HOP-92 4.91 µM | DU-145 81.1 µM | NCI-H460 > 100 µM | PC-3 > 100 µM | NCI-H23 > 100 µM

O=S(=O)(O)c1ccc(/N=N/c2ccc(/N=N/c3c(O)ccc4ccccc34)cc2)cc1
> 100 µM: HCT-15
inactive: OVCAR-4 > 100 µM | KM12 98.6 µM | MOLT-4 > 100 µM | Malme-3M 35.6 µM | RPMI-8226 > 100 µM | SK-MEL-5 > 91.8 µM | LOX IMVI > 100 µM | SNB-75 > 100 µM | NCI-H522 > 100 µM | RXF 393 > 100 µM | NCI-H226 > 100 µM | SK-OV-3 > 100 µM | K562 > 100 µM | HOP-92 > 100 µM | DU-145 > 89.3 µM | NCI-H460 > 100 µM | PC-3 > 100 µM | NCI-H23 > 94.2 µM

Cc1ccc([N+](=O)[O-])c2c(NCC(O)CO)ccnc12 (centres undefined)
28.8 µM: HCT-15
inactive: OVCAR-4 52.8 µM | KM12 32.2 µM | MOLT-4 > 100 µM | Malme-3M 16.4 µM | RPMI-8226 84.9 µM | SK-MEL-5 18.6 µM | LOX IMVI 37.6 µM | SNB-75 > 100 µM | NCI-H522 > 10 µM | RXF 393 45.9 µM | NCI-H226 73.1 µM | SK-OV-3 > 100 µM | K562 50 µM | HOP-92 34.8 µM | DU-145 51.4 µM | NCI-H460 20 µM | PC-3 70.3 µM | NCI-H23 41.8 µM

O=S(=O)(Nc1nc2ccccc2nc1N1CCCCCC1)c1ccccc1
inactive: OVCAR-4 4.05 µM | KM12 15.8 µM | MOLT-4 16.4 µM | Malme-3M 25.4 µM | RPMI-8226 48.2 µM | SK-MEL-5 14.3 µM | LOX IMVI > 100 µM | SNB-75 21 µM | NCI-H522 19.1 µM | RXF 393 19.1 µM | NCI-H226 27.9 µM | SK-OV-3 28.2 µM | K562 > 100 µM | HOP-92 7.8 µM | DU-145 > 100 µM | NCI-H460 15.7 µM | PC-3 19.4 µM | NCI-H23 19.1 µM
17.2 µM: HCT-15

COc1cc(N(CCC#N)CCC#N)ccc1C(/N=N/c1cccc(C)c1)=N\NC(=O)c1ccc(C)cc1
> 100 µM: HCT-15
inactive: OVCAR-4 > 100 µM | KM12 > 100 µM | MOLT-4 7.91 µM | Malme-3M 43.5 µM | RPMI-8226 35.7 µM | SK-MEL-5 > 100 µM | LOX IMVI > 100 µM | NCI-H522 80.5 µM | RXF 393 73.8 µM | NCI-H226 > 100 µM | SK-OV-3 > 100 µM | K562 > 100 µM | A498 4.78 µM | HOP-92 65.9 µM | DU-145 > 100 µM | NCI-H460 25.9 µM | PC-3 > 100 µM | NCI-H23 > 100 µM

CN(C)CCCN1c2ccc([N+](=O)[O-])cc2CCc2cccc([N+](=O)[O-])c21
inactive: KM12 15.6 µM | MOLT-4 15.8 µM | Malme-3M 14.1 µM | RPMI-8226 26.1 µM | SK-MEL-5 15.2 µM | LOX IMVI 16.5 µM | SNB-75 13.2 µM | NCI-H522 17.7 µM | RXF 393 10.5 µM | NCI-H226 13.3 µM | SK-OV-3 14.8 µM | K562 14.8 µM | HOP-92 11 µM | DU-145 17.4 µM | NCI-H460 15.5 µM | PC-3 16.7 µM | NCI-H23 15.9 µM
15.5 µM: HCT-15
active: OVCAR-4 0.57 µM

N#CC(C#N)/N=N/c1ccc(-c2nc3ccccc3o2)cc1
inactive: OVCAR-4 12 µM | KM12 20.9 µM | MOLT-4 7.82 µM | Malme-3M 13.3 µM | SK-MEL-5 2.05 µM | LOX IMVI 13.1 µM | SNB-75 24.4 µM | NCI-H522 5.02 µM | SK-OV-3 18.6 µM | K562 8.61 µM | A498 13.9 µM | HOP-92 6.81 µM | DU-145 13.3 µM | NCI-H460 13.9 µM | PC-3 8 µM | NCI-H23 10.1 µM
14.8 µM: HCT-15

O=C1NC(S(=O)(=O)O)=NNC12c1ccccc1-c1ccccc12
> 10 µM: HCT-15
inactive: OVCAR-4 > 10 µM | KM12 > 10 µM | MOLT-4 > 10 µM | Malme-3M > 10 µM | RPMI-8226 > 10 µM | SK-MEL-5 > 10 µM | LOX IMVI > 10 µM | SNB-75 > 10 µM | NCI-H522 > 10 µM | RXF 393 > 10 µM | NCI-H226 > 10 µM | SK-OV-3 > 10 µM | K562 > 10 µM | HOP-92 > 10 µM | DU-145 > 10 µM | NCI-H460 > 10 µM | PC-3 > 10 µM | NCI-H23 > 10 µM

COC(=O)C1(C(=O)OC)N=C(C)OC1/C=C/c1ccccc1 (centres undefined)
inactive: OVCAR-4 > 100 µM | KM12 > 100 µM | MOLT-4 > 100 µM | RPMI-8226 38 µM | SK-MEL-5 > 100 µM | LOX IMVI > 100 µM | SNB-75 > 100 µM | RXF 393 > 100 µM | NCI-H226 > 100 µM | SK-OV-3 > 100 µM | K562 > 100 µM | A498 > 100 µM | HOP-92 > 100 µM | DU-145 > 100 µM | NCI-H460 > 100 µM | PC-3 > 100 µM | NCI-H23 > 100 µM
> 100 µM: HCT-15
